According to patent publication US6355630B1, “Estra-1,3,5(10)-triene-7α-thioethers” (priority 1997, dated 2002):
pIC50: −log10 of the molar value. Read-outs that look alike come from different tables or passages of the source.

What was measured:
[1] = test system: Ishikawa uterine cells; assay: Ishikawa cell alkaline phosphatase test procedure; assay type: cell-based, human; details: for Alkaline phosphatase activity, percent of response related to 1 nM 17β-estradiol: 48 h; for Behaviour in the uterine cell line (agonist/antagonist): in words, from Table 2
Experimental: Ishikawa Cell Alkaline Phosphatase Test Procedure
Cell Maintenance and Treatment
Ishikawa cells were maintained in DMEM/F12 (50%:50%) containing phenol red+10% fetal bovine serum and the medium was supplemented with 2 mM Glutamax, 1% Pen/Strap and 1 mM sodium pyruvate. Five days prior to the beginning of each evaluation (treatment of cells) the medium was changed to phenol red-free DMEM/F12+10% dextran coated charcoal stripped serum. On the day before treatment, cells were harvested using 0.5% trypsin/EDTA and plated at a density of 5×10^4 cells/well in 96-well tissue culture plates. […] Cells were treated for 48 h prior to assay. […] Sample population for at each dose was n=8.
Alkaline Phosphatase Test Procedure
At the end of 48 h the media was aspirated and cells were washed three times with phosphate buffered saline (PBS); 50 μL of lysis buffer (0.1 M Tris-HCl, pH 9.8, 0.2% Triton X-100) was added to each well. Plates were placed at −80° C. for a minimum of 15 minutes. Plates were thawed at 37° C. followed by the addition of 150 μL of 0.1 M Tris-HCl, pH 9.8, containing 4 mM para-nitrophenylphosphate (pNPP) to each well (final concentration, 3 mM pNPP).
Absorbance and slope calculations were made using the KineticCalc Application program (Bio-Tek Instruments, Inc., Winooski, Vt.). Results are expressed as the mean +/−S.D. of the rate of enzyme reaction (slope) averaged over the linear portion of the kinetic reaction curve (optical density readings every 5 minutes for 30 minutes absorbance reading).
The four compounds were used as reference standards:
A description of these methods is described by Holinka, C. F., Hata, H., Kuramoto, H. and Gurpide, E. (1986) Effects of steroid hormones and antisteroids on alkaline phosphatase activity in human endometrial cancer cells (Ishikawa Line). Cancer Research, 46:2771-2774, and by Littlefield, B. A., Gurpide, E., Markiewicz, L., McKinley, B. and Hochberg, R. B. (1990) A simple and sensitive microtiter plate estrogen bioassay based on stimulation alkaline phosphatase in Ishikawa cells; Estrogen action of D5 adrenal steroids. Endocrinology, 6:2757-2762.

[2] = target: T1, human estrogen receptor (Homo sapiens, UniProt P03372); assay: In vitro estrogen receptor binding test procedure ([3H]-17β-estradiol competition)
T1 construct: expressed in transfected cells; host or cells: Chinese Hamster ovary (CHO) cells; ribosome-free cytosol
T1 sequence (P03372 1-595): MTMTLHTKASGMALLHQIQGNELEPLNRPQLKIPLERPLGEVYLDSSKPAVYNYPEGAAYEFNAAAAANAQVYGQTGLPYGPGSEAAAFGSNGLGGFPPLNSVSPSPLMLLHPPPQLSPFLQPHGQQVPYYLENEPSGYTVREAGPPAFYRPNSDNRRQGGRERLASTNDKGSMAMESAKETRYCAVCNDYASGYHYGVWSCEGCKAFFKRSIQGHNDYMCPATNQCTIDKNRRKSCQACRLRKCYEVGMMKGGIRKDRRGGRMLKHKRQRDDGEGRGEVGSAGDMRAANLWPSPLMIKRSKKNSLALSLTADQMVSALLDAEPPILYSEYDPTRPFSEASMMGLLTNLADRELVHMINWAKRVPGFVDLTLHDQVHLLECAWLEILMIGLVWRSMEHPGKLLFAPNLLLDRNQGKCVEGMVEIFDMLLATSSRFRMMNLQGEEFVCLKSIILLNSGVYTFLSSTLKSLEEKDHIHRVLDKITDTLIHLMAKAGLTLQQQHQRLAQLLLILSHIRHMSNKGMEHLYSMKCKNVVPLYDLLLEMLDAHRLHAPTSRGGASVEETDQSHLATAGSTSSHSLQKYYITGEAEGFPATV
Experimental: In vitro Estrogen Receptor Binding Test Procedure
Chinese Hamster ovary (CHO) cells overexpressing the estrogen receptor were grown in […] dishes in DMEM+10% dextran coated charcoal, stripped fetal bovine serum. The plates were washed twice with PBS and once with 10 mM Tris-HCl, pH 7.4, 1 mM EDTA. Cells were harvested by scraping the surface and then the cell suspension was placed on ice. Cells were disrupted with a hand-held motorized tissue grinder using two, 10-second bursts. The crude preparation was centrifuged at 12,000 g for 20 minutes followed by a 60 minute spin at 100,000 G to produce a ribosome free cytosol. The cytosol was then frozen and stored at −80° C. Protein concentration of the cytosol was estimated using the BCA assay with reference standard protein.
Binding Test Procedure Conditions
100 uG/100 uL of the receptor preparation was aliquoted per well. […] The plate was incubated at room temperature for 2.5 h. At the end of this incubation period 150 uL of ice-cold dextran coated charcoal (5% activated charcoal coated with 0.05% 69K dextran) was added to each well and the plate was immediately centrifuged at 99 g for 5 minutes at 4° C. 200 uL of the supernatant solution was then removed for scintillation counting. Samples were counted to 2% or 10 minutes, whichever occurs first. […] Also, wells containing radioactivity but no cytosol were processed with charcoal to estimate unremovable DPM of [^3H] […] 96-well plates were used because they have proven to bind the least amount of estradiol.
Counts per minute (CPM) of radioactivity were automatically converted to disintegrated per minute (DPM) by the Beckman LS 7500 Scintillation Counter using a set of quenched standards to generate a H# for each sample. To calculate the % of estradiol binding in the presence of 100 or 500 fold competitor the following formula was applied:
((DPM sample−DPM not removed by charcoal/(DPM estradiol−DPM not removed by charcoal))×100%=% of estradiol binding
For the generation of IC50 curves, % binding is plotted vs compound. […] Values are reported as IC50 values. […] For a description of these methods, see Hulme, E. C., ed. 1992. Receptor-Ligand Interactions: A Practical Approach. IRL Press, New York.(see especially chapter 8).
Compounds were tested for their ability to displace estradiol in a human ER-receptor preparation as described above.

[3] = test system: rat uterus; assay: Rat uterotrophic/antiuterotrophic test procedure; assay type: in vivo; details: for Uterine wet weight: daily ip, 4-day immature rat
Experimental: Rat Uterotrophic/Antiuterotrophic Test Procedure
The estrogenic and antiestrogenic properties of the compounds were determined in a 4-day immature rat uterotrophic assay (as described previously by L. J. Black and R. L. Goode, Life Sciences, 26, 1453 (1980)). Immature Sprague-Dawley rats (female, 18 days old) were tested in groups of six. […] On day 4 the animals were sacrificed by CO2 asphyxiation and their uteri were removed and stripped of excess lipid, any fluid removed and the wet weight determined. A small section of one horn was submitted for histology and the remainder used to isolate total RNA in order to evaluate complement component 3 gene expression.
Representative compounds of this invention were evaluated in the rat uterotrophic/antiuterotrophic assay to determine their in vivo effects on the rat uterus.

[4] = 1 uM compound + 1 nM E2, antagonist mode

SMILES: C[C@]12CC[C@@H]3c4ccc(O)cc4C[C@@H](Sc4ccc(Br)cc4)[C@H]3[C@@H]1CC[C@@H]2O [Example 8, (7α,17β) 7-(4-Bromophenyl)thio-estra-1,3,5(10)-triene-3,17-diol]
- Alkaline phosphatase activity, percent of response related to 1 nM 17β-estradiol ([1]; 0.01 uM compound, agonist mode): 29%
- Alkaline phosphatase activity, percent of response related to 1 nM 17β-estradiol ([1]; 0.1 uM compound, agonist mode): 59%
- Alkaline phosphatase activity, percent of response related to 1 nM 17β-estradiol [1, 4]: 95%
- Alkaline phosphatase activity, percent of response related to 1 nM 17β-estradiol ([1]; 1 uM compound, agonist mode): 92%
- pIC50 ([2]; read-out: Receptor IC50): 6.10
- Uterine wet weight ([3]; 1 ug Cpd): 35.8 mg
- Uterine wet weight ([3]; 100 ug Cpd): 64.7 mg

SMILES: C[C@]12CC[C@@H]3c4ccc(O)cc4C(=O)[C@@H](Sc4ccc(Br)cc4)[C@H]3[C@@H]1CC[C@@H]2O [Example 6, (7α,17β) 7-(4-Bromophenyl)thio-3,17-dihydroxy-estra-1,3,5(10)-trien-6-one]
- Alkaline phosphatase activity, percent of response related to 1 nM 17β-estradiol ([1]; 0.01 uM compound, agonist mode): 31%
- Alkaline phosphatase activity, percent of response related to 1 nM 17β-estradiol ([1]; 0.1 uM compound, agonist mode): 100%
- Alkaline phosphatase activity, percent of response related to 1 nM 17β-estradiol [1, 4]: 109%
- Alkaline phosphatase activity, percent of response related to 1 nM 17β-estradiol ([1]; 1 uM compound, agonist mode): 104%
- Behaviour in the uterine cell line (agonist/antagonist) [1]: fully efficacious agonists
- pIC50 ([2]; read-out: Receptor IC50): 5.82
- Uterine wet weight ([3]; 1 ug Cpd): 29.0 mg
- Uterine wet weight ([3]; 100 ug Cpd): 97.7 mg

SMILES: C[C@]12CC[C@@H]3c4ccc(O)cc4[C@@H](O)[C@@H](Sc4ccc(O)cc4)[C@H]3[C@@H]1CC[C@@H]2O [Example 3, (6α,7α,17β) 7-(4-Hydroxyphenyl)thio-estra-1,3,5(10)-triene-3,6,17-triol]
- Alkaline phosphatase activity, percent of response related to 1 nM 17β-estradiol ([1]; 0.01 uM compound, agonist mode): 86%
- Alkaline phosphatase activity, percent of response related to 1 nM 17β-estradiol ([1]; 0.1 uM compound, agonist mode): 88%
- Alkaline phosphatase activity, percent of response related to 1 nM 17β-estradiol [1, 4]: 97%
- Alkaline phosphatase activity, percent of response related to 1 nM 17β-estradiol ([1]; 1 uM compound, agonist mode): 75%
- pIC50 ([2]; read-out: Receptor IC50): 8.00
- Uterine wet weight ([3]; 1 ug Cpd): 62.4 mg
- Uterine wet weight ([3]; 1 ug E2 + 100 ug Cpd): 106.1 mg
- Uterine wet weight ([3]; 100 ug Cpd): 99.9 mg

SMILES: CCCCN(C)C(=O)CCCCCCCCCCS[C@@H]1C(=O)c2cc(O)ccc2[C@H]2CC[C@]3(C)[C@@H](O)CC[C@H]3[C@H]12 [Example 16, (7α,17β) 7-[10-(N-Butyl-N-methyl-carbamoyl)-decyl]thio-3,17-dihydroxy-estra-1,3,5(10)-triene-6-one]
- Alkaline phosphatase activity, percent of response related to 1 nM 17β-estradiol ([1]; 0.01 uM compound, agonist mode): 7%
- Alkaline phosphatase activity, percent of response related to 1 nM 17β-estradiol ([1]; 0.1 uM compound, agonist mode): 22%
- Alkaline phosphatase activity, percent of response related to 1 nM 17β-estradiol [1, 4]: 66%
- Alkaline phosphatase activity, percent of response related to 1 nM 17β-estradiol ([1]; 1 uM compound, agonist mode): 42%
- pIC50 [2]: 6.52
- Uterine wet weight ([3]; 1 ug Cpd): 41.3 mg
- Uterine wet weight ([3]; 100 ug Cpd): 72.5 mg

SMILES: CCCCN(C)C(=O)CCCCCCCCCCS[C@@H]1Cc2cc(O)ccc2[C@H]2CC[C@]3(C)[C@@H](O)CC[C@H]3[C@@H]21 [Example 18, (7α,17β) 7-[10-(N-Butyl-N-methyl-carbamoyl)-decyl]thio-estra-1,3,5(10)-triene-3,17-diol]
- Alkaline phosphatase activity, percent of response related to 1 nM 17β-estradiol ([1]; 0.01 uM compound, agonist mode): 0%
- Alkaline phosphatase activity, percent of response related to 1 nM 17β-estradiol ([1]; 0.1 uM compound, agonist mode): 0%
- Alkaline phosphatase activity, percent of response related to 1 nM 17β-estradiol [1, 4]: 1%
- Alkaline phosphatase activity, percent of response related to 1 nM 17β-estradiol ([1]; 1 uM compound, agonist mode): 0%
- Behaviour in the uterine cell line (agonist/antagonist) [1]: pure estrogen antagonists
- pIC50 [2]: 7.00
- Uterine wet weight ([3]; 1 ug Cpd): 31.8 mg
- Uterine wet weight ([3]; 1 ug E2 + 100 ug Cpd): 46.0 mg
- Uterine wet weight ([3]; 100 ug Cpd): 41.6 mg
- Effect on rat uterus (agonist/antagonist) ([3]; in words, dosed alone or with 17β-estradiol): very efficacious antagonist

SMILES: C[C@]12CC[C@@H]3c4ccc(O)cc4C[C@@H](Sc4ccc(C=CC(=O)O)cc4)[C@H]3[C@@H]1CC[C@@H]2O [Example 11, (7α,17β) 7-{4-[2-(Carboxy)-ethenyl]phenyl}thio-estra-1,3,5(10)-triene-3,17-diol]
- Alkaline phosphatase activity, percent of response related to 1 nM 17β-estradiol ([1]; 0.01 uM compound, agonist mode): 0%
- Alkaline phosphatase activity, percent of response related to 1 nM 17β-estradiol ([1]; 0.1 uM compound, agonist mode): 23%
- Alkaline phosphatase activity, percent of response related to 1 nM 17β-estradiol [1, 4]: 50%
- Alkaline phosphatase activity, percent of response related to 1 nM 17β-estradiol ([1]; 1 uM compound, agonist mode): 21%
- pIC50 [2]: 5.82
